Measurements from PubChem BioAssay AID248 (DTP/NCI, 2004).
Values joined by “and” are separate entries in the source; they are usually repeats but may differ in a detail not shown here. Identical values can stand only once. Inconclusive results and toxic doses are left out.

Tested on: L1210 leukemia ip in BDF1 mice, survival T/C
Test: NCI In Vivo Anticancer Drug Screen. Data for tumor model L1210 Leukemia (intraperitoneal) in B6D2F1 (BDF1) mice
Settings: endpoint: mean survival time, higher = longer survival
Procedure, shortened: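 Tumor cells were implanted, animals were treated, and survival was followed. The result divides the treated measurement by the vehicle-control measurement.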

[1] = dose: 100.0 mg/kg/injection, schedule: Q04DX002 (ip), vehicle: Klucel (hydroxypropylcellulose) (HPC)
[2] = dose: 200.0 mg/kg/injection, schedule: Q04DX002 (ip), vehicle: Klucel (hydroxypropylcellulose) (HPC)
[3] = dose: 400.0 mg/kg/injection, schedule: Q04DX002 (ip), vehicle: Klucel (hydroxypropylcellulose) (HPC)
[4] = dose: 100.0 mg/kg/injection, schedule: Q04DX003 (ip), vehicle: Klucel (hydroxypropylcellulose) (HPC)
[5] = dose: 200.0 mg/kg/injection, schedule: Q04DX003 (ip), vehicle: Klucel (hydroxypropylcellulose) (HPC)
[6] = dose: 400.0 mg/kg/injection, schedule: Q04DX003 (ip), vehicle: Klucel (hydroxypropylcellulose) (HPC)
[7] = dose: 100.0 mg/kg/injection, schedule: Q01DX009 (ip), vehicle: Klucel (hydroxypropylcellulose) (HPC)
[8] = dose: 200.0 mg/kg/injection, schedule: Q01DX009 (ip), vehicle: Klucel (hydroxypropylcellulose) (HPC)

With `O=C(Nc1ccc(NC(=O)Nc2cccc(C3=NCCN3)c2)cc1)Nc1cccc(C2=NCCN2)c1` the T/C (dose: 3.5 mg/kg/injection, schedule: Q#A X Z (ip), vehicle: saline) was 106 % of control, the T/C (dose: 7.0 mg/kg/injection, schedule: Q01DX Z (ip), vehicle: saline) was 115 % of control and the T/C (dose: 7.5 mg/kg/injection, schedule: Q01DX006 (iv), vehicle: saline) was 98 % of control. The T/C (dose: 7.5 mg/kg/injection, schedule: Q#A X Z (ip), vehicle: saline) was 117 % of control, the T/C (dose: 15.0 mg/kg/injection, schedule: Q01DX006 (iv), vehicle: saline) was 107 % of control and the T/C (dose: 15.0 mg/kg/injection, schedule: Q01DX Z (ip), vehicle: saline) was 111 % of control. For the same molecule, the T/C (dose: 23.0 mg/kg/injection, schedule: Q03DX Z (ip), vehicle: saline) was 116 % of control, the T/C (dose: 30.0 mg/kg/injection, schedule: Q01DX006 (iv), vehicle: saline) was 116 % of control and the T/C (dose: 30.0 mg/kg/injection, schedule: Q01DX Z (sc), vehicle: carboxymethylcellulose (CMC)) was 102 % of control. For the same molecule, the T/C (dose: 47.0 mg/kg/injection, schedule: Q03DX Z (ip), vehicle: saline) was 119 % of control, the T/C (dose: 55.0 mg/kg/injection, schedule: Q07DX Z (ip), vehicle: saline) was 121 % of control and the T/C (dose: 60.0 mg/kg/injection, schedule: Q01DX010 (ip), vehicle: saline) was 151 % of control and 153 % of control. For the same molecule, the T/C (dose: 60.0 mg/kg/injection, schedule: Q01DX Z (im), vehicle: saline) was 110 % of control, the T/C (dose: 60.0 mg/kg/injection, schedule: Q01DX Z (ip), vehicle: carboxymethylcellulose (CMC)) was 286 % of control and the T/C (dose: 60.0 mg/kg/injection, schedule: Q01DX Z (sc), vehicle: carboxymethylcellulose (CMC)) was 110 % of control. The T/C (dose: 94.0 mg/kg/injection, schedule: Q03DX Z (ip), vehicle: saline) was 121 % of control, the T/C (dose: 120.0 mg/kg/injection, schedule: Q01DX010 (ip), vehicle: saline) was 182 % of control and 215 % of control and the T/C (dose: 120.0 mg/kg/injection, schedule: Q01DX Z (im), vehicle: saline) was 100 % of control. The T/C (dose: 120.0 mg/kg/injection, schedule: Q01DX Z (ip), vehicle: carboxymethylcellulose (CMC)) was 151 % of control, the T/C (dose: 120.0 mg/kg/injection, schedule: Q01DX Z (sc), vehicle: carboxymethylcellulose (CMC)) was 104 % of control and the T/C (dose: 148.0 mg/kg/injection, schedule: Q01DX Z (ip), vehicle: carboxymethylcellulose (CMC)) was 208 % of control. For the same molecule, the T/C (dose: 219.0 mg/kg/injection, schedule: Q07DX Z (ip), vehicle: saline) was 154 % of control, the T/C (dose: 222.0 mg/kg/injection, schedule: Q01DX Z (ip), vehicle: carboxymethylcellulose (CMC)) was 298 % of control and the T/C (dose: 240.0 mg/kg/injection, schedule: Q01DX010 (ip), vehicle: saline) was 236 % of control and 263 % of control. For the same molecule, the T/C (dose: 240.0 mg/kg/injection, schedule: Q01DX Z (ip), vehicle: carboxymethylcellulose (CMC)) was 318 % of control, the T/C (dose: 333.0 mg/kg/injection, schedule: Q01DX Z (ip), vehicle: carboxymethylcellulose (CMC)) was 353 % of control and the T/C (dose: 480.0 mg/kg/injection, schedule: Q01DX010 (ip), vehicle: saline) was 112 % of control and 268 % of control. The T/C (dose: 480.0 mg/kg/injection, schedule: Q01DX Z (im), vehicle: saline) was 184 % of control, the T/C (dose: 480.0 mg/kg/injection, schedule: Q01DX Z (ip), vehicle: carboxymethylcellulose (CMC)) was 102 % of control and 242 % of control and the T/C (dose: 500.0 mg/kg/injection, schedule: Q01DX Z (ip), vehicle: carboxymethylcellulose (CMC)) was 328 % of control.

`CC1(CCI)NC(=O)NC1=O` (stereo not given) was tested, and the T/C (dose: 100.0 mg/kg/injection, schedule: Q01DX001 (ip), vehicle: Klucel (hydroxypropylcellulose) (HPC)) was 98 % of control, the T/C (dose: 200.0 mg/kg/injection, schedule: Q01DX001 (ip), vehicle: Klucel (hydroxypropylcellulose) (HPC)) was 104 % of control and the T/C (dose: 400.0 mg/kg/injection, schedule: Q01DX001 (ip), vehicle: Klucel (hydroxypropylcellulose) (HPC)) was 111 % of control.

With `NC(N)=NC(N)=Nc1ccc(S(=O)(=O)c2ccc(N=C(N)N=C(N)N)cc2)cc1` the T/C (dose: 100.0 mg/kg/injection, schedule: Q01DX009 (ip), vehicle: saline with Tween-80) was 95 % of control and the T/C (dose: 200.0 mg/kg/injection, schedule: Q01DX009 (ip), vehicle: saline with Tween-80) was 95 % of control.

In the case of `COc1ccc(/C=C2\CS(=O)(=O)C/C(=C\c3ccc(OC)cc3)C2=O)cc1`, the T/C (dose: 100.0 mg/kg/injection, schedule: Q01DX001 (ip), vehicle: saline) is reported as 94 % of control and the T/C (dose: 400.0 mg/kg/injection, schedule: Q01DX001 (ip), vehicle: saline) is reported as 95 % of control.

`O=S(=O)(Cc1ccccc1)N1CCCCC1` was tested, and the T/C [1] was 99 % of control and the T/C [2] was 99 % of control.

With `O=C(c1ccc(O)cc1O)c1ccc(O)cc1O` the T/C (dose: 50.0 mg/kg/injection, schedule: Q04DX002 (ip), vehicle: gum acacia) was 114 % of control, the T/C (dose: 100.0 mg/kg/injection, schedule: Q04DX002 (ip), vehicle: gum acacia) was 104 % of control and the T/C (dose: 200.0 mg/kg/injection, schedule: Q04DX002 (ip), vehicle: gum acacia) was 86 % of control.

For `COc1ccc([N+](=O)[O-])cc1NC(=O)Nc1cccc(C(F)(F)F)c1`, the T/C [1] was 96 % of control, the T/C [2] was 101 % of control and the T/C [3] was 96 % of control.

`CC(C)NCc1ccccc1` was tested, and the T/C (dose: 100.0 mg/kg/injection, schedule: Q04DX002 (ip), vehicle: saline with Tween-80) was 95 % of control and the T/C (dose: 200.0 mg/kg/injection, schedule: Q04DX002 (ip), vehicle: saline with Tween-80) was 98 % of control.

`NNC(=O)C(=O)NN` was tested, and the T/C [1] was 102 % of control, the T/C [2] was 98 % of control and the T/C [3] was 93 % of control.

In the case of `Clc1ccc2nsnc2c1Cl`, the T/C [4] is reported as 95 % of control, the T/C [5] is reported as 98 % of control and the T/C [6] is reported as 98 % of control.

In the case of `NC(CCC1SCCS1)C(=O)O` (stereo not given), the T/C (dose: 100.0 mg/kg/injection, schedule: Q01DX001 (ip), vehicle: carboxymethylcellulose (CMC)) is reported as 104 % of control, the T/C (dose: 200.0 mg/kg/injection, schedule: Q01DX001 (ip), vehicle: carboxymethylcellulose (CMC)) is reported as 96 % of control and the T/C (dose: 400.0 mg/kg/injection, schedule: Q01DX001 (ip), vehicle: carboxymethylcellulose (CMC)) is reported as 98 % of control.

In the case of `CN(C)C1=C(N2CC2)C(=O)C(N(C)C)=C(N2CC2)C1=O`, the T/C (dose: 0.09 mg/kg/injection, schedule: Q01DX001 (ip), vehicle: saline) is reported as 107 % of control, the T/C (dose: 0.09 mg/kg/injection, schedule: Q01DX009 (ip), vehicle: saline) is reported as 93 % of control and 116 % of control and the T/C (dose: 0.09 mg/kg/injection, schedule: Q04DX003 (ip), vehicle: saline) is reported as 94 % of control and 107 % of control. For the same molecule, the T/C (dose: 0.18 mg/kg/injection, schedule: Q01DX001 (ip), vehicle: saline) was 108 % of control, the T/C (dose: 0.18 mg/kg/injection, schedule: Q01DX009 (ip), vehicle: saline) was 96 % of control and 108 % of control and the T/C (dose: 0.37 mg/kg/injection, schedule: Q01DX001 (ip), vehicle: saline) was 97 % of control. The T/C (dose: 0.37 mg/kg/injection, schedule: Q01DX009 (ip), vehicle: saline) was 114 % of control and 116 % of control, the T/C (dose: 0.75 mg/kg/injection, schedule: Q01DX001 (ip), vehicle: saline) was 98 % of control and the T/C (dose: 0.75 mg/kg/injection, schedule: Q01DX009 (ip), vehicle: saline) was 110 % of control. The T/C (dose: 1.5 mg/kg/injection, schedule: Q01DX001 (ip), vehicle: saline) was 115 % of control and the T/C (dose: 1.5 mg/kg/injection, schedule: Q01DX009 (ip), vehicle: saline) was 93 % of control.

With `CCCCCCC(O)C/C=C\CCCCCCCCO` (stereo not given) the T/C (dose: 100.0 mg/kg/injection, schedule: Q01DX009 (ip), vehicle: saline) was 121 % of control, the T/C (dose: 100.0 mg/kg/injection, schedule: Q04DX003 (ip), vehicle: saline) was 101 % of control and the T/C (dose: 200.0 mg/kg/injection, schedule: Q01DX009 (ip), vehicle: saline) was 115 % of control. The T/C (dose: 200.0 mg/kg/injection, schedule: Q04DX003 (ip), vehicle: saline) was 99 % of control, the T/C (dose: 400.0 mg/kg/injection, schedule: Q01DX009 (ip), vehicle: saline) was 103 % of control and the T/C (dose: 400.0 mg/kg/injection, schedule: Q04DX003 (ip), vehicle: saline) was 104 % of control.

In the case of `O=C(c1ccccc1)C(Br)C(c1ccccc1)c1ccccc1` (stereo not given), the T/C [7] is reported as 94 % of control, the T/C [4] is reported as 104 % of control and the T/C [8] is reported as 94 % of control. For the same molecule, the T/C [5] was 104 % of control, the T/C (dose: 400.0 mg/kg/injection, schedule: Q01DX009 (ip), vehicle: Klucel (hydroxypropylcellulose) (HPC)) was 100 % of control and the T/C [6] was 98 % of control.

For `CC(=O)Nc1cc(Cl)c([N+](=O)[O-])cc1C`, the T/C [1] was 110 % of control, the T/C [2] was 113 % of control and the T/C [3] was 103 % of control.

`Cc1cc(OCC(N)=O)ccc1Cl` was tested, and the T/C [1] was 103 % of control, the T/C [2] was 92 % of control and the T/C [3] was 98 % of control.

`CN(C)c1ncc(C(N)=O)cn1` was tested, and the T/C [7] was 97 % of control, the T/C [4] was 100 % of control and the T/C [8] was 108 % of control. The T/C [5] was 96 % of control and the T/C [6] was 110 % of control.
